The molecules below were run against T1, HIS-tagged RORγ-LBD (Homo sapiens, UniProt P51449) (assay: TR-FRET assay (Protocol B), RORγ-LBD lysate / biotinylated SRC1-2 LXXLL peptide). Settings: unpurified RORγ-LBD lysate ~10 nM, SRC1-2 peptide 450 nM.
T1 construct: HIS-tagged RORγ-LBD was recombinantly expressed in SF9 cells using a baculovirus expression system; made in house; host or cells: SF9 cells, baculovirus; crude lysate used
T1 sequence (P51449 269-508 limits assumed): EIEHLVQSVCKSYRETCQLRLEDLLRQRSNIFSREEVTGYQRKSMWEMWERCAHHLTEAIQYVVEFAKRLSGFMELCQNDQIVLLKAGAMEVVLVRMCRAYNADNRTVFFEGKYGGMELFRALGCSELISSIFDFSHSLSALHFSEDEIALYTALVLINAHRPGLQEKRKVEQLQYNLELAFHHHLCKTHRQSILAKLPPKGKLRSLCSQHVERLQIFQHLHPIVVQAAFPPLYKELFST
Type: biochemical
Source text: Activation of RORgammaT activity can be measured using e.g. biochemical TR-FRET assay. In such an assay, interaction of cofactor-derived peptides with human RORgammaT-Ligand Binding Domain (LBD) can be measured.
To identify novel antagonists of RORgammaT, an assay was developed which employs the interaction of RORgammaT with its co-activator peptide SRC1_2. […] The assay was run following three slightly different protocols, i.e. Protocol A, Protocol B, and Protocol C, which are described below.
TR-Fret Assay (Protocol B)
HIS-tagged RORγ-LBD was recombinantly expressed in SF9 cells using a baculovirus expression system. The protein was not purified. Cells were lysed and the lysate was used as a source for RORγ-LBD for the assay. A 1:80 dilution of RORγ-LBD lysate in assay buffer (25 mM HEPES pH 7.0, 100 mM NaCl, 0.01% Tween, 0.1% BSA) was prepared and 5 μL was added to each well (RORγ-LBD final concentration ˜10 nM). Control wells received lysate from SF9 cells not expressing RORγ-LBD.
Compounds to be tested were diluted to 100× final test concentration in DMSO and further diluted to 4× final test concentration using assay buffer to provide the test compound mixture. An aliquot (5 μL) of the test compound mixture was added to each well.
`COc1cccc(F)c1C(=O)n1nc(-c2ccc(C(=O)O)cc2F)c2c(F)cccc21` [Example 24AA, 3-fluoro-4-(4-fluoro-1-(2-fluoro-6-methoxybenzoyl)-1H-indazol-3-yl)benzoic acid] gave an IC50 of less than 50 nM.
For `COc1cccc(F)c1C(=O)n1nc(-c2ccc(C(=O)O)cc2)c2c(F)cccc21` [Example 24AB, 4-(4-fluoro-1-(2-fluoro-6-methoxybenzoyl)-1H-indazol-3-yl)benzoic acid], the IC50 was less than 50 nM.
Molecule `O=C(O)c1cccc(-c2nn(C(=O)c3c(Cl)cccc3C(F)(F)F)c3cccnc23)c1` [Example 24AC, 3-(1-(2-chloro-6-(trifluoromethyl)-benzoyl)-1H-pyrazolo[4,3-b]pyridin-3-yl) benzoic acid] has an IC50 of 500 to 10000 nM.
`O=C(O)Cc1ccc(-c2nn(C(=O)c3c(Cl)cccc3C(F)(F)F)c3cccnc23)cc1` [Example 24AD, 2-(4-(1-(2-chloro-6-(trifluoromethyl)-benzoyl)-1H-pyrazolo[4,3-b]pyridin-3-yl)phenyl)acetic acid] showed an IC50 of 500 to 10000 nM.
In the case of `O=C(c1c(Cl)cccc1C(F)(F)F)n1nc(-c2ccc(C(O)(C(F)(F)F)C(F)(F)F)cc2)c2ncccc21` [Example 24AE, (2-chloro-6-(trifluoromethyl)-phenyl)(3-(4-(1,1,1,3,3,3-hexafluoro-2-hydroxypropan-2-yl)phenyl)-1H-pyrazolo[4,3-b]pyridin-1-yl)methanone], the IC50 is reported as 500 to 10000 nM.
Work on `Cc1cc(C(=O)O)ccc1-c1nn(C(=O)c2c(Cl)cccc2C(F)(F)F)c2cccnc12` [Example 24AF, 4-(1-(2-chloro-6-(trifluoromethyl)-benzoyl)-1H-pyrazolo[4,3-b]pyridin-3-yl)-3-methylbenzoic acid] yielded an IC50 of less than 50 nM.
Work on `O=C(O)c1ccc(-c2nn(C(=O)c3c(Cl)cccc3C(F)(F)F)c3cccnc23)c(Cl)c1` [Example 24AG, 3-chloro-4-(1-(2-chloro-6-(trifluoromethyl)-benzoyl)-1H-pyrazolo[4,3-b]pyridin-3-yl)benzoic acid] yielded an IC50 of less than 50 nM.
With `O=C(O)c1ccc(-c2nn(C(=O)c3c(Cl)cccc3C(F)(F)F)c3cccnc23)cc1F` [Example 24AH, 4-(1-(2-chloro-6-(trifluoromethyl)-benzoyl)-1H-pyrazolo[4,3-b]pyridin-3-yl)-2-fluorobenzoic acid] the IC50 was less than 50 nM.
`COc1cc(-c2nn(C(=O)c3c(Cl)cccc3C(F)(F)F)c3cccnc23)ccc1C(=O)O` [Example 24AI, 4-(1-(2-chloro-6-(trifluoromethyl)-benzoyl)-1H-pyrazolo[4,3-b]pyridin-3-yl)-2-methoxybenzoic acid] was tested, and the IC50 was 50 to 500 nM.
`O=C(O)c1cc(F)c(-c2nn(C(=O)c3c(Cl)cccc3C(F)(F)F)c3cccnc23)cc1Cl` [Example 24AJ, 2-chloro-4-(1-(2-chloro-6-(trifluoromethyl)-benzoyl)-1H-pyrazolo[4,3-b]pyridin-3-yl)-5-fluorobenzoic acid] gave an IC50 of 50 to 500 nM.
Molecule `O=C(O)c1cc(F)c(-c2nn(C(=O)c3c(Cl)cccc3C(F)(F)F)c3cccnc23)cc1F` [Example 24AK, 4-(1-(2-chloro-6-(trifluoromethyl)-benzoyl)-1H-pyrazolo[4,3-b]pyridin-3-yl)-2,5-difluorobenzoic acid] has an IC50 of less than 50 nM.
With `COc1cccc(F)c1C(=O)n1nc(-c2ccc(C(=O)O)cc2)c2ncccc21` [Example 24AM, 4-(1-(2-fluoro-6-methoxybenzoyl)-1H-pyrazolo[4,3-b]pyridin-3-yl)benzoic acid] the IC50 was less than 50 nM.
Molecule `COc1cccc(F)c1C(=O)n1nc(-c2ccc(C(=O)O)cc2F)c2ncccc21` [Example 24AN, 3-fluoro-4-(1-(2-fluoro-6-methoxybenzoyl)-1H-pyrazolo[4,3-b]pyridin-3-yl)benzoic acid] has an IC50 of less than 50 nM.
`O=C(O)c1ccc(-c2nn(C(=O)c3c(Cl)cccc3C(F)(F)F)c3cccc(C(F)(F)F)c23)cc1` [Example 24AO, 4-(1-(2-chloro-6-(trifluoromethyl)-benzoyl)-4-(trifluoromethyl)-1H-indazol-3-yl)benzoic acid] gave an IC50 of less than 50 nM.

Source: patent US9884043B2, “RORgammaT inhibitors” (Merck Sharp & Dohme Corp., priority 2011, dated 2018)
